In patent US12589087B2, “Enantiomer selective action on neurotransmission” (The Board of Trustees of the Leland Stanford Junior …, priority 2021, dated 2026):

Tests used:
C57Bl/6 mice = assay: SHIRPA, activity chamber open field and hot plate after single injection; format: in vivo, mouse
Protocol: Dosing: (R)-2MeGlu (30, 100, 300, or 900 mg/kg), (S)-2MeGlu (30, 100, 300, or 900 mg/kg), rac-2MeGln (30, 100, 300, or 900 mg/kg) and vehicle (PBS) were administered at 10 ml/kg IP dosing volume. Three mice were dosed once with the assigned drug (100, 300, or 900 mg/kg) or vehicle and immediately placed in a new cage for novel cage observation. Subsequently, six mice were dosed once with the assigned drug (30 or 100 mg/kg) or vehicle and tested by SHIRPA, activity chamber, and then hot plate tests.
Hot Plate apparatus (IITC Inc. Model 39) was set to 55° C.±0.2. On testing day, mice were placed on the surface of the hot plate and covered by a transparent glass cylinder (25 cm high and 12 cm diameter). A 30 second cutoff time was assigned. A remote foot-switch pad was used to control the start/stop/reset function. Latency time was recorded when hind paw licking or jumping off first occurred.
The SHIRPA preliminary screen designed by Rogers et al. (1997) was modified and used to assess the general health and behavioral traits of the mice for the initial five minutes after drug administration. The test was conducted in three different testing locations: A cylindrical clear plastic viewing jar (15 cm height×10 cm diameter), a polycarbonate cage (Arena) with 10 cm×10 cm squares on the floor, and a 1 cm×1 cm wire grid. The test began by placing the mouse in the clear plastic viewing jar for 60 seconds, and the behavioral parameters were monitored and recorded. The mouse was then transferred to an open-top arena by releasing them from 25 cm above the floor of the arena. Upon completion of monitoring the parameters inside the arena, the mouse was removed from the arena by the tail. Behavioral parameters monitored were according to Portmann et al. (2014).
Assessment was made in an Open Field Activity Arena (Med Associates Inc., St. Albans, VT. Model ENV-515) mounted with three planes of infrared detectors within a specially designed sound-attenuating chamber (Med Associates Inc., St. Albans, VT. MED-017M-027). The arena was 43 cm (L)×43 cm (W)×30 cm (H) and the sound-attenuating chamber was 74 cm (L)×60 cm (W)×60 cm (H). The mice were placed in the corner of the testing arena and allowed to explore the arena for 60 min while being tracked automatically. Parameters measured include distance moved, velocity, rearing, and times spent in the periphery and center of the Arena. Periphery was defined as the zone 5 cm away from the arena wall. The Arena was cleaned with a 1% Virkon solution at the end of the trial. […] The novel cage protocol is conducted on the benchtop in a lighted room using a clean home cage, and tests habituation using video recording and scoring of behavioral performance. Moreover, the novel cage allows the tester to visualize any other side effects such as seizure or repetitive jumping. The activity chamber is in an enclosed box, and the test is done in the dark, without bedding, and in a sound isolating chamber. The activity chamber measures distance moved using infrared beams and without video recordings.
Exploratory behavioral tests were performed exactly as previously described by us using 2-month-old C57Bl/6 male mice, Example 1. First, we assessed safety and tolerability of acute exposure to 4APA enantiomers in 22 mice by novel cage observation at 100, 300, or 900 mg/kg IP compared to vehicle (PBS) IP (n=3 or 4 mice per group without sample calculation, based on our previous study. Next, we evaluated 24 drug naïve mice with a 23-measure battery of neurologic dysfunction in mice (SHIRPA) (Rogers et al., 2001), automated activity chamber assessment, and hot plate latency acutely following 30 or 100 mg/kg IP compared to vehicle IP (n=4 or 5 mice per group). No exclusion criteria were predetermined and no randomization was performed to allocate subjects in the study.

NMDA nonspecific = assay: radioligand binding assay, cerebral cortex membranes, [3H]CGP 39653; details: NMDA nonspec, rat; 100 μM
Protocol: Nonspecific AMPA, kainate and NMDA binding assays were performed by Eurofins Discovery (Cerep) using rat cerebral cortex membranes and radiolabeled [^3H]AMPA, [^3H]kainic acid and [^3H]CGP 39653, respectively. All compounds were tested at a single concentration of 100 uM in triplicate. mGluR1, mGluR2, mGluR5 and GABAB binding assays were performed by Eurofins Discovery. mGluR1 assay was performed using rat cerebellum membranes and radiolabeled [^3H]quisqalic acid. mGluR2 assay was performed using recombinant Chem-1 cells and [^3H]LY341495. mGluR5 and GABAB binding assays were performed using recombinant CHO-K1 cells and […], respectively. All compounds were tested at a single concentration of 100 uM in triplicate.
All receptor assays were performed exactly as described in Example 1. Functional assays of all GABAA, NMDA (GluN2A-GluN2D) and AMPA (GluA2) receptor subunits were performed by SB Drug Discovery as a part of their CNS discovery panel using FLIPR technology. All compounds were tested at 7 concentrations in triplicate and EC50/IC50 was determined where applicable. Functional GABAB assay was performed by Eurofins Discovery (Cerep) using Ca^2+-dependent fluorimetry in RBL cells expressing human GABAB (B1/B2) receptor. All compounds were tested at a single concentration of 100 uM in triplicate. […]

[1] = single 30 mg/kg IP, only at 11 minutes post injection
[2] = single 100 mg/kg IP, up to 6 minutes post injection

| Structure (SMILES) | distance moved in the activity chamber vs vehicle (C57Bl/6 mice; [1]) | distance moved in the activity chamber vs vehicle (C57Bl/6 mice; [2]) | % of radioligand binding inhibition (NMDA nonspecific) [%] |
| --- | --- | --- | --- |
| C[C@@](N)(CCC(=O)O)C(=O)O [(R)-2MeGlu, (R)-2-methylglutamic acid] | modest but significant reduction | significantly reduced | 8 |
| CC(N)(CCC(N)=O)C(=O)O (racemic) [rac-2MeGln, rac-2-methylglutamine] | modest but significant reduction | not significantly different from vehicle at any time point | – |
| C[C@](N)(CCC(=O)O)C(=O)O [(S)-2MeGlu, (S)-2-methylglutamic acid] | not significantly different | significantly reduced | 3 |
